Tested on: A431 cells
Experiment: Inhibition of A431 cells by 225-CDR peptides (3H-thymidine)
Format: cell-based, human
Details: 72 hours, FIG. 5
Procedure: These peptides were dissolved in PBS at a concentration of 1 mg/ml. A431 cells were plated at 1000 cells per well in 96 well plates. Peptides were added at various concentrations. […] Plates were incubated for 72 hours at 37° C. and pulsed overnight with ^3H-thymidine. Cells were harvested and counted in a liquid scintillation counter. Percent inhibition is defined as the decrease in 3-H thymidine incorporation of antibody or peptide treated cells compared to cells grown in the absence of antibody or peptide.

GVIWSGGNTDYNTPFTSR [heavy chain CDR-2]
inhibition of A431 cells (3H-thymidine incorporation): inhibited

NYGVH [heavy chain CDR-1]
inhibition of A431 cells (3H-thymidine incorporation): inhibited

Reference: patent publication US7060808B1, “Humanized anti-EGF receptor monoclonal antibody” (ImClone Systems Incorporated, priority 1995, dated 2006)
